US20260250318A1, “COMPOSITIONS AND METHODS FOR CROSSING THE BLOOD BRAIN BARRIER” (VOYAGER THERAPEUTICS, INC., priority 2022, published 2026)

How the values were obtained:
[1] = test system: brains, heart, liver, muscle, and DRG of the NHPs; assay: Maturation of TTM-001 and TTM-002 capsids, NGS enrichment in NHP tissues; format: in vivo; conditions: relative to AAV9 control
In short: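 Variants carry mutations within and flanking the loop IV peptide insert: positions 450–466 were triplet-randomized, while positions 449–466 received low-frequency point mutations. The combined pool went into two NHPs, and each peptide was scored by NGS enrichment ratio against AAV9.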

brain = assay: Matured TTM-001 and TTM-002 variants, NGS enrichment in mouse brain; format: in vivo, mice; conditions: relative to AAV9 control
[2] = NGS fold-enrichment of matured AAV capsid variants, NHP brain, RNA
[3] = NGS fold-enrichment of RNA, NHP brain
[4] = NGS fold-enrichment, NHP liver DNA
[5] = NGS fold-enrichment, NHP liver RNA
[6] = NGS fold-enrichment, NHP muscle
[7] = NGS fold-enrichment, mouse brain
[8] = NGS fold-enrichment, DRG of NHPs
[9] = NGS fold-enrichment, RNA, brain of NHPs
[10] = NGS fold-enrichment, heart of NHPs
[11] = NGS fold-enrichment, liver DNA of NHPs
[12] = NGS fold-enrichment, liver RNA of NHPs
[13] = NGS fold-enrichment, muscle of NHPs
[14] = NGS fold-enrichment, brain of mice

| Sequence | Fold Enrichment relative to AAV9, Brain (NHP) [1, 2] [fold] | Fold Enrichment relative to AAV9, DRG (NHP) ([1]; NHP DRG) [fold] | Fold Enrichment relative to AAV9, Heart (NHP) ([1]; NHP heart) [fold] | Fold Enrichment relative to AAV9, Liver DNA (NHP) ([1]; NHP liver, DNA) [fold] | Fold Enrichment relative to AAV9, Liver RNA (NHP) ([1]; NHP liver, RNA) [fold] | Fold Enrichment relative to AAV9, Muscle (NHP) ([1]; NHP muscle) [fold] | Fold Enrichment relative to AAV9, Brain (Mouse) (brain; mouse brain) [fold] | Fold Enrichment relative to AAV9, Brain (NHP) [1, 3] [fold] | Fold Enrichment relative to AAV9, DRG (NHP) ([1]; NGS fold-enrichment, NHP DRG) [fold] | Fold Enrichment relative to AAV9, Heart (NHP) ([1]; NGS fold-enrichment, NHP heart) [fold] | Fold Enrichment relative to AAV9, Liver DNA (NHP) [1, 4] [fold] | Fold Enrichment relative to AAV9, Liver RNA (NHP) [1, 5] [fold] | Fold Enrichment relative to AAV9, Muscle (NHP) [1, 6] [fold] | Fold Enrichment relative to AAV9, Brain (Mouse) (brain; [7]) [fold] | other results |
| --- | --- | --- | --- | --- | --- | --- | --- | --- | --- | --- | --- | --- | --- | --- | --- |
| KTINGSGSPHSKAQPART | 55.513 | 0.000 | 0.000 | 0.991 | 1.294 | 0.328 | 127.301 | – | – | – | – | – | – | – | – |
| KAINGHDSPHKSGQSPQT | – | – | – | – | – | – | – | 75.734 | 0.095 | 0.148 | 0.238 | 0.000 | 0.000 | 14.195 | – |
| KTINGHESPHKSAQNRQT | – | – | – | – | – | – | – | 95.531 | 0.000 | 0.113 | 0.082 | 0.130 | 0.000 | 4.815 | – |
| KTINGSGSPHSKAQKVIT | 53.273 | 0.000 | 0.000 | 0.402 | 0.357 | 0.000 | 95.147 | – | – | – | – | – | – | – | – |
| KTERASGSPHSKAQNQQT | – | – | – | – | – | – | – | 103.669 | 0.000 | 0.000 | 0.070 | 0.127 | 0.000 | 115.550 | Fold Enrichment relative to AAV9, DRG (NHP) [1, 8]: 0.000 fold; Fold Enrichment relative to AAV9, Brain (NHP) [1, 9]: 103.669 fold; Fold Enrichment relative to AAV9, Heart (NHP) [1, 10]: 0.000 fold; Fold Enrichment relative to AAV9, Liver DNA (NHP) [1, 11]: 0.070 fold; Fold Enrichment relative to AAV9, Liver RNA (NHP) [1, 12]: 0.127 fold; Fold Enrichment relative to AAV9, Muscle (NHP) [1, 13]: 0.000 fold; Fold Enrichment relative to AAV9, Brain (Mouse) (brain; [14]): 115.550 fold |
| KTINGHDSPHKSGQSKQA | – | – | – | – | – | – | – | 101.460 | 0.000 | 0.222 | 0.114 | 0.185 | 0.000 | 7.510 | – |
| KTEDKSGSPHSKAQNQQT | – | – | – | – | – | – | – | – | – | – | – | – | – | – | Fold Enrichment relative to AAV9, DRG (NHP) [1, 8]: 0.000 fold; Fold Enrichment relative to AAV9, Brain (NHP) [1, 9]: 68.813 fold; Fold Enrichment relative to AAV9, Heart (NHP) [1, 10]: 0.000 fold; Fold Enrichment relative to AAV9, Liver DNA (NHP) [1, 11]: 0.000 fold; Fold Enrichment relative to AAV9, Liver RNA (NHP) [1, 12]: 0.000 fold; Fold Enrichment relative to AAV9, Muscle (NHP) [1, 13]: 0.000 fold; Fold Enrichment relative to AAV9, Brain (Mouse) (brain; [14]): 70.071 fold |
| KTINGHESPHKSGQTQQI | – | – | – | – | – | – | – | 86.089 | 0.000 | 0.222 | 0.024 | 0.000 | 0.000 | 3.989 | – |
| KTINGSGSPHSKAQVPST | 54.366 | 0.000 | 1.001 | 0.139 | 0.202 | 0.000 | 117.223 | – | – | – | – | – | – | – | – |
| KTTNGHDSPHKSGQNLLT | – | – | – | – | – | – | – | 77.738 | 0.130 | 0.064 | 0.326 | 0.424 | 0.185 | 15.192 | – |
| KTINGSGSPHSKAHNQQR | – | – | – | – | – | – | – | – | – | – | – | – | – | – | Fold Enrichment relative to AAV9, DRG (NHP) [1, 8]: 0.562 fold; Fold Enrichment relative to AAV9, Brain (NHP) [1, 9]: 74.272 fold; Fold Enrichment relative to AAV9, Heart (NHP) [1, 10]: 0.486 fold; Fold Enrichment relative to AAV9, Liver DNA (NHP) [1, 11]: 0.057 fold; Fold Enrichment relative to AAV9, Liver RNA (NHP) [1, 12]: 0.956 fold; Fold Enrichment relative to AAV9, Muscle (NHP) [1, 13]: 0.047 fold; Fold Enrichment relative to AAV9, Brain (Mouse) (brain; [14]): 107.301 fold |
| KTEITSGSPHSKAQNQQT | – | – | – | – | – | – | – | 79.620 | 0.000 | 0.163 | 0.074 | 0.332 | 0.000 | 76.686 | Fold Enrichment relative to AAV9, DRG (NHP) [1, 8]: 0.000 fold; Fold Enrichment relative to AAV9, Brain (NHP) [1, 9]: 79.620 fold; Fold Enrichment relative to AAV9, Heart (NHP) [1, 10]: 0.163 fold; Fold Enrichment relative to AAV9, Liver DNA (NHP) [1, 11]: 0.074 fold; Fold Enrichment relative to AAV9, Liver RNA (NHP) [1, 12]: 0.332 fold; Fold Enrichment relative to AAV9, Muscle (NHP) [1, 13]: 0.000 fold; Fold Enrichment relative to AAV9, Brain (Mouse) (brain; [14]): 76.686 fold |
| KNCWGSGSPHSKAQNQQT | 57.756 | 0.000 | 0.000 | 0.092 | 0.000 | 0.000 | 59.888 | – | – | – | – | – | – | – | – |
| KTINGYDSPHKSGQYQHT | – | – | – | – | – | – | – | 81.534 | 0.000 | 0.036 | 0.000 | 0.000 | 0.000 | 10.524 | – |
| KTINGSGSPHSKSQSQLT | 55.430 | 0.000 | 0.035 | 0.013 | 0.050 | 0.000 | 125.577 | – | – | – | – | – | – | – | – |
| KAINGHDNPHKSGQNQQT | – | – | – | – | – | – | – | 88.906 | 0.297 | 0.721 | 0.130 | 0.222 | 0.482 | 9.702 | – |
| KEFVGSGSPHSKAQNQQT | 58.374 | 0.000 | 0.046 | 0.326 | 0.088 | 0.000 | 128.675 | – | – | – | – | – | – | – | – |
